Drawing on patent US12180215B2, “Substituted pyrrolo[3,4-d]imidazoles as JAK inhibitors” (HENAN MEDINNO PHARMACEUTICAL TECHNOLOGY CO., LTD., priority 2019, dated 2024), this text covers IC50 for 20 compounds.

SMILES strings stand for the structures.

One experiment concerns the target JAK1 (Homo sapiens, UniProt P23458). In words: JAK1 kinase ADP-Glo assay (Example 60). A general note: ADP-Glo first removes unused ATP, then detects ADP through luciferase.
In the next experiment the target is T1, TYK2 (Homo sapiens, UniProt P29597).
T1 sequence (P29597 871-1187 limits assumed): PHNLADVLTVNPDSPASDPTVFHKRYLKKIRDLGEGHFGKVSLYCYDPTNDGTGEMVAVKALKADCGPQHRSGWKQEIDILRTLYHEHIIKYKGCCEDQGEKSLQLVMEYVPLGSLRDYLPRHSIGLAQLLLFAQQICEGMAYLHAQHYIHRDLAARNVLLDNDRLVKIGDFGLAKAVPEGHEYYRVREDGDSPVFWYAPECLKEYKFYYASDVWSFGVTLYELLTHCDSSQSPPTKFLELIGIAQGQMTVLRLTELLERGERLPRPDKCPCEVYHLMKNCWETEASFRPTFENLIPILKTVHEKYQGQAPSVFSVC
The experiment is described as follows: TYK2 kinase ADP-Glo assay (Example 60).

For the next experiment, the target named is JAK3 (Homo sapiens, UniProt P52333). In words: JAK3 kinase ADP-Glo assay (Example 60).
The next experiment concerns the target JAK2 (Homo sapiens, UniProt O60674). In words: JAK2 kinase ADP-Glo assay (Example 60).

Chain of JAK3 (P52333 795-1124 limits assumed): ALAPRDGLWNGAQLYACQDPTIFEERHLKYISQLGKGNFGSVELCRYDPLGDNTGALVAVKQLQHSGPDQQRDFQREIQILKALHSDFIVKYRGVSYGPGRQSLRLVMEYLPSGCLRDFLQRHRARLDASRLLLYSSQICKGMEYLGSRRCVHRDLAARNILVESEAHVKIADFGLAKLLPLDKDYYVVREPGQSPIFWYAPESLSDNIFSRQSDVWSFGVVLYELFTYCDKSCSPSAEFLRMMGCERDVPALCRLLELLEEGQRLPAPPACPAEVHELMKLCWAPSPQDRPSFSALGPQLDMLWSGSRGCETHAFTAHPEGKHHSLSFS
Chain of JAK1 (P23458 850-1154 limits assumed): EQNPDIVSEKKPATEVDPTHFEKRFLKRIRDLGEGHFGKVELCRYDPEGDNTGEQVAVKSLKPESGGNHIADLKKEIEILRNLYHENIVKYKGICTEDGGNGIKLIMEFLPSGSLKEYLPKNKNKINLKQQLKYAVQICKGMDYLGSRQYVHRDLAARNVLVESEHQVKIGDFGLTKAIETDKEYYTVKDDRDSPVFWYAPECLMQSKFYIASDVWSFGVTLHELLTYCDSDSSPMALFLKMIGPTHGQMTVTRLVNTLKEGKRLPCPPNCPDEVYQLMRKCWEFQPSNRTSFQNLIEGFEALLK
Chain of JAK2 (O60674 826-1132 limits assumed): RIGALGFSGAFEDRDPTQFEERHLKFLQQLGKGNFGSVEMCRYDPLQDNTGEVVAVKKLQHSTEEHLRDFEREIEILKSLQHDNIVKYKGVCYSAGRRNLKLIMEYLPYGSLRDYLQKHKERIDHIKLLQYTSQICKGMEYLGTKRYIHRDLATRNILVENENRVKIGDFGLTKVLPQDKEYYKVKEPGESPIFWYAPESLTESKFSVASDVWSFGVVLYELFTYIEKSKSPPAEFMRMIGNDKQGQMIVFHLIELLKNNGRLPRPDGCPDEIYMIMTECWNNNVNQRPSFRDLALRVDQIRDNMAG

A word on the IC50: it is the midpoint of a concentration-inhibition curve. A low value points to inhibition by little substance. With `CCc1cc(O)c(F)cc1-c1ccc2c(-c3nc4c([nH]3)CN(C(=O)N3CC[C@@H](O)C3)C4)n[nH]c2c1` [MDI-243, (R)-(2-(6-(2-ethyl-5-fluoro-4-hydroxyphenyl)-1H-indazol-3-yl)-4,6-dihydropyrrolo[3,4-d]imidazol-5(1H)-yl)(3-hydroxylpyrrolidin-1-yl)ketone], the IC50 against JAK1 turned out to be 0.118 nM; at TYK2, 0.167 nM; on JAK3, 0.269 nM; at JAK2, 0.499 nM.

Turning to `CCc1cc(O)c(F)cc1-c1ccc2c(-c3nc4c([nH]3)CN(C(=O)N3CCCCC3)C4)n[nH]c2c1` [MDI-233, (2-(6-(2-ethyl-5-fluoro-4-hydroxyphenyl)-1H-indazol-3-yl)-4,6-dihydropyrrolo[3,4-d]imidazol-5-(1H)-yl)(piperidin-1-yl)ketone], the half-inhibitory concentration (IC50) stood at 1.31 nM at JAK1, 3.5 nM against TYK2, 2.6 nM against JAK3 and 1.33 nM against JAK2.

With `CCc1cc(O)c(F)cc1-c1ccc2c(-c3nc4c([nH]3)CN(C(=O)CC3CC3)C4)n[nH]c2c1` [MDI-229, 2-cyclopropyl-1-(2-(6-(2-ethyl-5-fluoro-4-hydroxyphenyl)-1H-indazol-3-yl)-4,6-dihydropyrrolo[3,4-d]imidazol-5-(1H)-yl)ethan-1-one], the IC50 against JAK1 worked out at 0.753 nM; on TYK2, 4.71 nM; against JAK3 it was 0.481 nM; against JAK2, 0.356 nM.

Regarding `CCc1cc(O)c(F)cc1-c1ccc2c(-c3nc4c([nH]3)CN(S(=O)(=O)C3CC3)C4)n[nH]c2c1` [MDI-218, 4-(3-(5-(cyclopropanesulfonyl)-1,4,5,6-tetrahydropyrrolo[3,4-d]imidazol-2-yl)-1H-indazol-6-yl)-5-ethyl-2-fluorophenol], the concentration for half-maximal inhibition (IC50) against JAK1 was found to be 0.825 nM; against TYK2, 1.75 nM; against JAK3, 0.948 nM; on JAK2, 0.614 nM.

With `CCc1cc(O)c(F)cc1-c1ccc2c(-c3nc4c([nH]3)CN(C(=O)NC3CCOC3)C4)n[nH]c2c1` (stereo not drawn) [MDI-251, 2-(6-(2-ethyl-5-fluoro-4-hydroxyphenyl)-1H-indazol-3-yl)-N-(tetrahydrofuran-3-yl)-4,6-dihydropyrrolo[3,4-d]imidazol-5(1H)-carboxamide], the IC50 on JAK1 is 0.144 nM; at TYK2 it was 1.33 nM; against JAK3, 0.406 nM; against JAK2, 0.818 nM.

As for `CCc1cc(O)c(F)cc1-c1ccc2c(-c3nc4c([nH]3)CN(C3CCCC3)C4)n[nH]c2c1` [MDI-224, 4-(3-(5-cyclopentyl-1,4,5,6-tetrahydropyrrolo[3,4-d]imidazol-2-yl)-1H-indazol-6-yl)-5-ethyl-2-fluorophenol], the IC50 at JAK1 is 0.248 nM; at TYK2, 16.1 nM; on JAK3 it was 2.01 nM; on JAK2, 0.754 nM.

Turning to `CCc1cc(O)c(F)cc1-c1cc(C)c2c(-c3nc4c([nH]3)CN(C(=O)C3CC3)C4)n[nH]c2c1` [MDI-239, cyclopropyl (2-(6-(2-ethyl-5-fluoro-4-hydroxyphenyl)-4-methyl-1H-indazol-3-yl)-4,6-dihydropyrrolo[3,4-d]imidazol-5(1H)-yl)ketone], the IC50 was found to be 1.15 nM at JAK1, 19.2 nM on TYK2, 4.94 nM against JAK3 and 1.2 nM against JAK2.

Turning to `CCc1cc(O)c(F)cc1-c1ccc2c(-c3nc4c([nH]3)CN(C(=O)N3CC5(CNC5)C3)C4)n[nH]c2c1` [MDI-261, (2-(6-(2-ethyl-5-fluoro-4-hydroxyphenyl)-1H-indazol-3-yl)-4,6-dihydropyrrolo[3,4-d]imidazol-5(1H)-yl)(2,6-diazaspiro[3.3]heptan-2-yl)ketone], the IC50 against JAK1 was 0.154 nM; against TYK2 it was 1.16 nM; against JAK3, 0.473 nM; against JAK2, 0.703 nM.

Take `CCc1cc(O)c(F)cc1-c1cnc2c(-c3nc4c([nH]3)CN(C(=O)C3CC3)C4)n[nH]c2c1` [MDI-237, cyclopropyl (2-(6-(2-ethyl-5-fluoro-4-hydroxyphenyl)-1H-pyrazolo[4,3-b]pyridine-3-yl)-4,6-dihydropyrrolo[3,4-d]imidazol-5(1H)-yl)ketone]: the IC50 against JAK1 is 0.758 nM; on TYK2 it was 9.68 nM; against JAK3 it was 1.39 nM; at JAK2, 0.588 nM.

As for `CCc1cc(O)c(F)cc1-c1ccc2c(-c3nc4c([nH]3)CN(C(=O)N3CCCC3)C4)n[nH]c2c1` [MDI-231, (2-(6-(2-ethyl-5-fluoro-4-hydroxyphenyl)-1H-indazol-3-yl)-4,6-dihydropyrrolo[3,4-d]imidazol-5-(1H)-yl)(pyrrolidin-1-yl)ketone], the IC50 amounted to 0.53 nM on JAK1, 1.31 nM against TYK2, 0.893 nM at JAK3 and 1.17 nM against JAK2.

For the compound `CCc1cc(O)c(F)cc1-c1ccc2c(-c3nc4c([nH]3)CN(C(=O)NCCO)C4)n[nH]c2c1` [MDI-248, 2-(6-(2-ethyl-5-fluoro-4-hydroxyphenyl)-1H-indazol-3-yl)-N-(2-hydroxylethyl)-4,6-dihydropyrrolo[3,4-d]imidazol-5(1H)-carboxamide], the IC50 amounted to 0.093 nM against JAK1, 0.578 nM against TYK2, 0.303 nM on JAK3 and 0.56 nM at JAK2.

Take `CCc1cc(O)c(F)cc1-c1ccc2c(-c3nc4c([nH]3)CN(C(=O)N3CC[C@H](O)C3)C4)n[nH]c2c1` [MDI-216, (S)-(2-(6-(2-ethyl-5-fluoro-4-hydroxyphenyl)-1H-indazol-3-yl)-4,6-dihydropyrrolo[3,4-d]imidazol-5-(1H)-yl)(3-hydroxylpyrrolidin-1-yl)ketone]: the IC50 at JAK1 was found to be 0.134 nM; on TYK2 it was 1.62 nM; on JAK3, 0.247 nM; on JAK2, 0.233 nM.

As for `CCc1cc(O)c(F)cc1-c1ccc2c(-c3nc4c([nH]3)CN(C(=O)OC)C4)n[nH]c2c1` [MDI-252, Methyl 2-(6-(2-ethyl-5-fluoro-4-hydroxyphenyl)-1H-indazol-3-yl)-4,6-dihydropyrrolo[3,4-d]imidazol-5(1H)-carboxylate], the IC50 at JAK1 came out at 1.8 nM; against TYK2, 22 nM; on JAK3 it was 2.2 nM; against JAK2, 2.6 nM.

As for `CCC(=O)N1Cc2nc(-c3n[nH]c4cc(-c5cc(F)c(O)cc5CC)ccc34)[nH]c2C1` [MDI-227, 1-(2-(6-(2-ethyl-5-fluoro-4-hydroxyphenyl)-1H-indazol-3-yl)-4,6-dihydropyrrolo[3,4-d]imidazol-5-(1H)-yl)propan-1-one], the IC50 on JAK1 stood at 0.224 nM; on TYK2, 3.89 nM; against JAK3, 0.441 nM; against JAK2, 0.246 nM.

As for `CCc1cc(O)c(F)cc1-c1ccc2c(-c3nc4c([nH]3)CN(C(=O)N3CCC(O)CC3)C4)n[nH]c2c1` [MDI-245, (2-(6-(2-ethyl-5-fluoro-4-hydroxyphenyl)-1H-indazol-3-yl)-4,6-dihydropyrrolo[3,4-d]imidazol-5(1H)-yl)(4-hydroxylpiperidin-1-yl)ketone], the IC50 at JAK1 came out at 0.178 nM; against TYK2, 0.365 nM; against JAK3 it was 0.306 nM; on JAK2, 0.648 nM.

For `CCNC(=O)N1Cc2nc(-c3n[nH]c4cc(-c5cc(F)c(O)cc5CC)ccc34)[nH]c2C1` [MDI-247, 2-(6-(2-ethyl-5-fluoro-4-hydroxyphenyl)-1H-indazol-3-yl)-N-ethyl-4,6-dihydropyrrolo[3,4-d]imidazol-5-(1H)-carboxamide], the IC50 against JAK1 came out at 0.557 nM; against TYK2, 2.35 nM; against JAK3 it was 1.3 nM; against JAK2, 1.88 nM.

`CCc1cc(O)c(F)cc1-c1ccc2c(-c3nc4c([nH]3)CN(C(=O)c3cccnn3)C4)n[nH]c2c1` [MDI-215, (2-(6-(2-ethyl-5-fluoro-4-hydroxyphenyl)-1H-indazol-3-yl)-pyrrolo[3,4-d]imidazol-5-(1H,4H,6H)-yl)(pyridazin-3-yl)ketone]: the IC50 against JAK1 turned out to be 0.197 nM; at TYK2, 1.58 nM; at JAK3, 0.308 nM; at JAK2 it was 0.277 nM.

As to `CCc1cc(O)c(F)cc1-c1ccc2c(-c3nc4c([nH]3)CN(C(=O)N3CCOCC3)C4)n[nH]c2c1` [MDI-234, (2-(6-(2-ethyl-5-fluoro-4-hydroxyphenyl)-1H-indazol-3-yl)-4,6-dihydropyrrolo[3,4-d]imidazol-5-(1H)-yl)(morpholino)ketone], the IC50 against JAK1 came to 0.206 nM; against TYK2, 0.438 nM; at JAK3, 0.375 nM; at JAK2, 0.737 nM.

Take `CCc1cc(O)c(F)cc1-c1ccc2c(-c3nc4c([nH]3)CN(S(=O)(=O)C3CCC3)C4)n[nH]c2c1` [MDI-219, 4-(3-(5-(cyclobutylsulfonyl)-1,4,5,6-tetrahydropyrrolo[3,4-d]imidazol-2-yl)-1H-indazol-6-yl)-5-ethyl-2-fluorophenol]: the IC50 was found to be 1.38 nM on JAK1, 1.88 nM at TYK2, 2.29 nM against JAK3 and 1.38 nM at JAK2.

For `CCc1cc(O)c(F)cc1-c1ccc2c(-c3nc4c([nH]3)CN(C(=O)N3CC[C@H](O)C3)C4)n[nH]c2n1` [MDI-255, (S)-(2-(6-(2-ethyl-5-fluoro-4-hydroxyphenyl)-1H-pyrazolo[3,4-b]pyridine-3-yl)-4,6-dihydropyrrolo[3,4-d]imidazol-5(1H)-yl)(3-hydroxylpyrrolidin-1-yl)ketone], the figures for the IC50 against JAK1 and on JAK2 were 57.2 nM and 37.4 nM, respectively.
